Holding throughout (type): cell-based
Data set [1] can be described thus: Cell cytotoxicity 50 assay (CC50), MB200 cells, cell titer glo. The note with it: human. Summed up: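 MB200 cells were seeded at 10 k/well in F10 medium with bFGF, 15% FBS and dexamethasone. Cells were exposed to serially diluted compound (from 10 mM stock) in triplicate for 72 h at 37 °C. Viability was read by CellTiter-Glo luminescence and CC50 was fitted.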
On the technique in general: In ATP-based viability assays light output follows the ATP content of the culture.

Data set [2] is described as follows: Cell cytotoxicity 50 assay (CC50), HEK cells. Conditions: human. An outline of the steps: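 Starting from a 10 mM drug solution, serial dilutions were made in medium and added onto HEK cells, which were then incubated 72 h at 37 °C. Viability was read as CellTiter-Glo luminescence after 5 min, and CC50 was obtained by curve fitting.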
The test system of a further data set is MBD3L2 RNA. Kind of data set: RNA isolation and qPCR to determine MBD3L2 RNA levels in FSHD cells. Conditions: 48 hrs. Summed up:
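FSHD cells were treated one day after seeding with a DUX4 inhibitor (11 μM or 3.6 μM) for 48 h. Total RNA was DNase-treated and reverse-transcribed with random hexamers and M-MLV. MBD3L2 was quantified by SYBR Green qPCR in triplicate against EEF1A as the reference gene.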
(In qPCR the cycle at which signal appears reflects the starting amount.)

34 molecules from US20250313555A1, “2-SUBSTITUTED THIAZOLE AND BENZOTHIAZOLE COMPOSITIONS AND METHODS AS DUX4 INHIBITORS” (ALTAY THERAPEUTICS, INC., priority 2022, published 2025) can be followed below.

By CC50 is commonly meant the concentration that lowers cell viability or growth by half.

A value given as a limit tells only on which side of the number the result lay.

Consider `O=C(NCCN1C(=O)CCC1=O)c1ccc(-c2nc3ccccc3s2)cc1` [Compound 22], for which the CC50 at 72 h in data set [1] and in data set [2] was > 10 µM throughout. In addition, the “qPCR MBD3L2 Inhib at 11 µM” value in the data set on MBD3L2 RNA is given as “YES”.

Turning to `CC(=O)NCCCC(=O)N[C@H]1CC[C@@H](Cc2nc3ccccc3s2)CC1` [Compound 171], the CC50 at 72 h in data set [1] and in data set [2] was > 10 µM throughout. In addition, in the data set with MBD3L2 RNA, the “qPCR MBD3L2 Inhib at 11 µM” value is listed as “YES”.

As to `CC(=O)NCCCC(=O)N[C@H]1C[C@@H](c2nc3ccccc3s2)C1` [Compound 113], the 50% cytotoxic concentration (CC50) at 72 h in data set [1] and in data set [2] was > 10 µM in each case. Besides, the “qPCR MBD3L2 Inhib at 11 µM” value in the data set with MBD3L2 RNA is recorded as “YES”.

Regarding `CN(C(=O)CCCN1C(=O)CCC1=O)c1ccc(-c2nc3cc(F)ccc3s2)cc1` [Compound 144], the CC50 at 72 h in data set [1] and in data set [2] was > 10 µM throughout. In the data set with MBD3L2 RNA, the “qPCR MBD3L2 Inhib at 11 µM” value was “YES”.

Consider `CC(=O)NCCCC(=O)Nc1cc(C)cc(-c2nc3ccccc3s2)c1` [Compound 72], for which the CC50 at 72 h in data set [1] and in data set [2] was > 10 µM each time. In the data set with MBD3L2 RNA, the “qPCR MBD3L2 Inhib at 11 µM” value was “YES”.

In the case of `CC(=O)N[C@H]1CC[C@@H](C(=O)Nc2nc3ccccc3s2)C1` [Compound 183], the CC50 at 72 h in data set [1] and in data set [2] was > 10 µM each time. Also, the “qPCR MBD3L2 Inhib at 11 µM” value with MBD3L2 RNA was “YES”.

As to `CC(=O)NCCCC(=O)Nc1cccc(-c2nc3ccccc3s2)c1` [Compound 71], the CC50 at 72 h in data set [1] and in data set [2] was > 10 µM each time. In addition, in the data set on MBD3L2 RNA, the “qPCR MBD3L2 Inhib at 11 µM” value was “YES”.

As for `CC(=O)NCCCc1nc(CCCC(=O)Nc2ccc(-c3nc4cc(F)ccc4s3)cc2)co1` [Compound 138], the CC50 at 72 h was > 10 µM in data set [1] and 1 to 10 µM in data set [2]. Moreover, the “qPCR MBD3L2 Inhib at 11 µM” value with MBD3L2 RNA is “YES”.

For the molecule `CC(=O)NC1CCC(C(=O)N[C@H]2CC[C@H](c3nc4ccccc4s3)CC2)C1` (stereo partly drawn) [Compound 134], the CC50 at 72 h in data set [1] and in data set [2] was > 10 µM in each case. In addition, the “qPCR MBD3L2 Inhib at 11 µM” value in the data set on MBD3L2 RNA is recorded as “YES”.

`CC(=O)N[C@@H]1CC[C@H](C(=O)Nc2nc3ccccc3s2)C1` [Compound 182]: the CC50 at 72 h in data set [1] and in data set [2] was > 10 µM in each case. In addition, in the data set on MBD3L2 RNA, the “qPCR MBD3L2 Inhib at 11 µM” value was “YES”.

On to `O=C(CCCN1C(=O)CCC1=O)NC1CCC(Cc2nc3ccccc3s2)C1` (stereo not drawn) [Compound 158], for which the CC50 at 72 h in data set [1] and in data set [2] was > 10 µM throughout. Moreover, the “qPCR MBD3L2 Inhib at 11 µM” value in the data set on MBD3L2 RNA is “YES”.

On to `CN(C(=O)CCCN1C(=O)CCC1=O)c1ccc(Cc2nc3ccccc3s2)cc1` [Compound 169], for which the CC50 at 72 h in data set [1] and in data set [2] was > 10 µM throughout. Also, the “qPCR MBD3L2 Inhib at 11 µM” value with MBD3L2 RNA was “YES”.

Take `O=C(NCCCN1C(=O)CCC1=O)c1ccc(-c2nc3ccccc3s2)cc1` [Compound 7]: the CC50 at 72 h in data set [1] and in data set [2] was > 10 µM in each case. Besides, the “qPCR MBD3L2 Inhib at 11 µM” value in the data set with MBD3L2 RNA is listed as “YES”.

As to `CC(=O)NCCCC(=O)NC1CCC(c2nc3ccccc3s2)CC1` (stereo not drawn) [Compound 28], the CC50 at 72 h in data set [1] and in data set [2] was > 10 µM throughout. In the data set with MBD3L2 RNA, the “qPCR MBD3L2 Inhib at 11 µM” value is recorded as “YES”.

For the molecule `O=C(CCCc1cccnc1)N[C@H]1CC[C@@H](c2nc3ccccc3s2)CC1` [Compound 163], the CC50 at 72 h in data set [1] and in data set [2] was > 10 µM throughout. In addition, the “qPCR MBD3L2 Inhib at 11 µM” value in the data set with MBD3L2 RNA is reported as “YES”.

For `CC(=O)NC1CCC(C(=O)Nc2nc3ccccc3s2)C1` (stereo not drawn) [Compound 131], the CC50 at 72 h in data set [1] and in data set [2] was > 10 µM in each case. In addition, the “qPCR MBD3L2 Inhib at 11 µM” value with MBD3L2 RNA was “YES”.

As to `CC(=O)NCCCC(=O)N[C@H]1CC[C@H](Cc2nc3ccccc3s2)CC1` [Compound 172], the CC50 at 72 h in data set [1] and in data set [2] was > 10 µM throughout. Also, the “qPCR MBD3L2 Inhib at 11 µM” value with MBD3L2 RNA is “YES”.

`CC(=O)NCCCNC(=O)c1ccc(-c2nc3ccccc3s2)o1` [Compound 149]: the CC50 at 72 h in data set [1] and in data set [2] was > 10 µM in each case. In the data set on MBD3L2 RNA, the “qPCR MBD3L2 Inhib at 11 µM” value is listed as “YES”.

In the case of `O=C(CCCc1cnco1)Nc1ccc(Cc2nc3ccccc3s2)cc1` [Compound 66], the CC50 at 72 h in data set [1] and in data set [2] was > 10 µM throughout. Besides, the “qPCR MBD3L2 Inhib at 11 µM” value with MBD3L2 RNA is “YES”.

With `O=C(CCCN1CCCC1=O)NC1CCCC1c1nc2ccccc2s1` (stereo not drawn) [Compound 117], the CC50 at 72 h in data set [1] and in data set [2] was > 10 µM each time. In addition, in the data set with MBD3L2 RNA, the “qPCR MBD3L2 Inhib at 11 µM” value is “YES”.

For `O=C(CCCc1cccnc1)NC1CCC(c2nc3ccccc3s2)C1` (stereo not drawn) [Compound 157], the CC50 at 72 h in data set [1] and in data set [2] was > 10 µM each time. Moreover, the “qPCR MBD3L2 Inhib at 11 µM” value with MBD3L2 RNA is “YES”.

Regarding `CC(=O)NCCCC(=O)N[C@H]1C[C@H](c2nc3ccccc3s2)C1` [Compound 112], the CC50 at 72 h in data set [1] and in data set [2] was > 10 µM in each case. Besides, the “qPCR MBD3L2 Inhib at 11 µM” value in the data set on MBD3L2 RNA is listed as “YES”.

As for `C=C(C)NCCC(=C)Nc1cc(C)cc(Cc2nc3ccccc3s2)c1` [Compound 120], the CC50 at 72 h in data set [1] and in data set [2] was > 10 µM in each case. Also, the “qPCR MBD3L2 Inhib at 11 µM” value with MBD3L2 RNA is reported as “YES”.

For `CC(=O)CCCCC(=O)Nc1ccc(-c2nccs2)cc1` [Compound 23], the CC50 at 72 h in data set [1] and in data set [2] was > 10 µM each time. In the data set with MBD3L2 RNA, the “qPCR MBD3L2 Inhib at 11 µM” value was “YES”.

As to `O=C(CCC1CCC(=O)N1)Nc1ccc(-c2nc3ccccc3s2)o1` (stereo not drawn) [Compound 179], the CC50 at 72 h in data set [1] and in data set [2] was > 10 µM each time. Also, in the data set with MBD3L2 RNA, the “qPCR MBD3L2 Inhib at 11 µM” value was “YES”.

In the case of `CN(C(=O)CCC1CCC(=O)N1)c1ccc(-c2nc3ccccc3s2)cc1` (stereo not drawn) [Compound 177], the CC50 at 72 h in data set [1] and in data set [2] was > 10 µM throughout. Besides, the “qPCR MBD3L2 Inhib at 11 µM” value in the data set with MBD3L2 RNA was “YES”.

`CC(=O)NCCCC(=O)Nc1cc(Cl)cc(-c2nc3cc(F)ccc3s2)c1` [Compound 102]: the CC50 at 72 h in data set [1] and in data set [2] was > 10 µM throughout. The “qPCR MBD3L2 Inhib at 11 µM” value in the data set with MBD3L2 RNA was “YES”.

In the case of `O=C(CCCN1CCCC1=O)NCCCc1nc2ccccc2s1` [Compound 118], the half-maximal cytotoxic concentration (CC50) at 72 h in data set [1] and in data set [2] was > 10 µM in each case. Also, in the data set with MBD3L2 RNA, the “qPCR MBD3L2 Inhib at 11 µM” value is reported as “YES”.

Turning to `O=C(CCCN1C(=O)CCC1=O)NC1CC(c2nc3ccccc3s2)C1` (stereo not drawn) [Compound 89], the CC50 at 72 h in data set [1] and in data set [2] was > 10 µM throughout. For the same molecule, the “qPCR MBD3L2 Inhib at 11 µM” value in the data set on MBD3L2 RNA was “YES”.

`O=C(CCC1CCC(=O)N1)Nc1ccc(Cc2nc3ccccc3s2)cc1` (stereo not drawn) [Compound 178]: the CC50 at 72 h in data set [1] and in data set [2] was > 10 µM throughout. The “qPCR MBD3L2 Inhib at 11 µM” value in the data set on MBD3L2 RNA was “YES”.

For the molecule `CC(=O)NCCCC(=O)N[C@@H]1CC[C@H](c2nc3ccccc3s2)C1` [Compound 114], the CC50 at 72 h in data set [1] and in data set [2] was > 10 µM throughout. The “qPCR MBD3L2 Inhib at 11 µM” value in the data set with MBD3L2 RNA is recorded as “YES”.

For the molecule `O=C(NCCc1cncnc1)c1ccc(-c2nc3ccccc3s2)cc1` [Compound 11], the CC50 at 72 h in data set [1] and in data set [2] was > 10 µM each time. Also, in the data set on MBD3L2 RNA, the “qPCR MBD3L2 Inhib at 11 µM” value is “YES”.

Take `CC(=O)NCCCC(=O)Nc1ccc(-c2nccs2)cc1` [Compound 70]: the CC50 at 72 h in data set [1] and in data set [2] was > 10 µM throughout. Further, in the data set with MBD3L2 RNA, the “qPCR MBD3L2 Inhib at 11 µM” value was “YES”.

As for `O=C(CCCc1cccnc1)N[C@H]1CC[C@H](c2nc3ccccc3s2)CC1` [Compound 164], the CC50 at 72 h in data set [1] and in data set [2] was > 10 µM each time. The “qPCR MBD3L2 Inhib at 11 µM” value with MBD3L2 RNA was “YES”.
